We go through 1 compound from patent publication US20240165196A1, “Beta-Lactamase Inhibitors” (VIB VZW, priority 2021, published 2024).

Common to all, as to assay type: cell-based
Assay [1] concerns E. coli clinical isolate, β-lactamase SHV-12; TEM-ESBL. The experiment in a line: MIC of ampicillin without/with 30 μg/mL TEM3.2, clinical isolates. The conditions noted are these: isolate 2017 Germany, RTI, Bronchi; ampicillin alone. The method, then:
(§1) Moreover, the core sequence of peptide TEM3.0 also occurs in the structurally related SHV β-lactamase (FIG. 2E). Although the C-terminal extension residues H and N have been replaced with physicochemically similar R and Q, respectively (FIG. 2H). […] To quantify the synergy between these four peptides and penicillin G, we performed a so-called checkerboard assay, which allows to compare the activity of two test compounds co-incubated (here peptide and a beta-lactam antibiotic), to their individual activities in isolation. The result from the assay is quantified as the Fractional Inhibitory Concentration Index (FICI), and it is generally accepted that values below 0.5 indicate synergistic effects between the compounds. As a control, we generated a peptide using the same design, but based on a previously identified APR from the β-galactosidase enzyme (BGAL)^16 from E. coli (APR=SVIIWSL, peptide sequence=[…]) that has a MIC value>100 μg/mL on E. coli strain UZ_TEM104. We evaluated the synergy of the peptides with penicillin G in clinical E. coli isolates carrying the TEM (FIG. 2I) or SHV enzymes (FIG. 2J). […] As a further control, we also performed a checkerboard assay with an E. coli strain that was resistant to the aminoglycoside kanamycin and observed no synergy between this unrelated antibiotic and our peptides (FIG. 2L), in line with the notion that we are inhibiting a beta-lactamase but not the aminoglycoside degrading enzyme. […] The list of strains included some that harbored only TEM or SHV, but others contained additional Ambler Class A (CTX-M or OXA) or Class B (VIM and NDM) beta-lactamases. […] In contrast, the presence of the NDM-type […], that does have a high affinity for Ampicillin and that is completely distinct in sequence and structure from TEM and SHV, seemed to completely prevent the effect of the peptide on the beta-lactam sensitivity of the strains in which it occurred (see also further). As it appeared that TEM3.2 had activity in most isolates tested, we decided to focus further analysis on this peptide. Furthermore, we tested the performance of the TEM3.2 peptide in a checkerboard assay on strains carrying ESBL mutants of TEM, i.e. extended-spectrum mutations that cluster around the active site of the enzyme, and not in the aggregation prone region targeted by the peptide, and as expected from our mode of action, we observed synergy with ampicillin on these strains (FIG. 2M).
(§2) Determination of MIC values using the broth microdilution in the 96-well plate (BD Biosciences, Belgium) according to the EUCAST guideline, which was performed in 96-well polystyrene flat bottom microtiter plates (BD Biosciences). Briefly, a single colony was inoculated into 5 mL Difco™ Mueller Hinton Broth (BD Biosciences Ref 275730) and grown to the end-exponential growth phase in a shaking incubator at 37° C. Cultures were subsequently diluted to an MacFarland (0.5 optical density) then the culture was diluted to reach 10^6 CFU/mL in fresh MHB medium. 50 μl of different concentration of peptides ranging from 128 to 2 μg/mL were serially diluted to the sterile 96-well plate in MHB. 50 μL of the diluted bacteria in MHB were pipetted into 96-well plates to reach the final volume of 100 μL. The bacteria grown with the maximum concentration of carrier and medium were considered as positive and negative controls, respectively. The plates were statically incubated overnight at 37° C. to allow bacterial growth. OD was measured at 590 nm a multipurpose ultraviolet-visible plate reader, and the absorbance of the growth bacteria was measured using absorbance reader. Bacterial growth was also visually inspected and agreed well with the OD reading.

Assay [2] relates to E. coli clinical isolate, β-lactamase SHV-2; CTX-M-55; VIM-1. The assay is described as above. The conditions noted are these: isolate 2017 Turkey, UTI, Urine; ampicillin alone. The method, then:
as §1, §2

For assay [3], the system named is E. coli clinical isolate, β-lactamase TEM-1. The assay is described as above. The conditions noted are these: isolates year NA, country NA, ampicillin alone. As to the method: as §1, §2
The subject of assay [4] is E. coli clinical isolate, β-lactamase TEM-ESBL; CTX-M-15; NDM-19. The assay is described as above. As to conditions: isolate 2017 Qatar, IAI, Abscess; ampicillin alone. As to the method: as §1, §2
Assay [5] concerns E. coli clinical isolate, β-lactamase TEM-ESBL; CTX-M-15; NDM-5. The description is as above. As to conditions: isolate 2017 Qatar, UTI, Urine; ampicillin alone. As to the method: as §1, §2
For assay [6], the system named is E. coli clinical isolate, β-lactamase TEM-ESBL; CTX-M-24; OXA-48. The assay is described as above. As to conditions: isolate 2017 Turkey, IAI, Abscess; ampicillin alone. The method, then:
as §1, §2

The subject of assay [7] is E. coli clinical isolate, β-lactamase TEM-ESBL; CTX-M-27. The description is as above. As to conditions: isolate 2017 Romania, UTI, Urine; ampicillin alone. The method, then:
as §1, §2

Assay [8] relates to E. coli clinical isolate, β-lactamase TEM-ESBL; CTX-M-TYPE. The description is as above. As to conditions: isolate 2017 France, IAI, Peritoneal Fluid; ampicillin alone. As to the method:
as §1, §2

Assay [9] has as its system E. coli clinical isolate, β-lactamase TEM-ESBL. The assay is described as above. As to conditions: ampicillin alone. As to the method: as §1, §2
For another assay, the system named is E. coli TEM-1 ?
As to the method: (§3) Beta-lactamase clinical samples were collected from University Hospitals Leuven and tested for ESBL production using the disk diffusion method^61. The beta-lactamase reference isolates were purchased from IHMA International Health management associates. Bacterial strains were cultivated in Mueller Hinton Broth (MHB, Difco) at 37° C. Whenever required growth media were supplemented with appropriate antibiotic to the medium or plates (kanamycin 30 μg/mL, L-arabinose 0.5 mg/mL, and IPTG 1 mM/mL). Escherichia coli BL21 (Thermo Fisher Scientific, Belgium) was used for cloning and plasmid amplification. For selection of antibiotic resistance colonies, E. coli carrying plasmids was grown in LB agar plates supplemented with the relevant antibiotic. Bacterial CFU counting was done on blood agar plates (BD Biosciences, Belgium) or MHA agar plates. Species identification and antibiograms for all clinical isolates were performed using MALDI-Tof and VITEK® 2 automated system (BioMérieux, France).

The subject of the next assay is E. coli TEM-104. The method, then:
as §3

For the next assay, the system named is E. coli TEM-148. As to the method: as §3; as to Interpretation: key: S, susceptible; I, intermediate; R, resistant
A further assay relates to E. coli NDM ? a. The assay is described as follows: antimicrobial susceptibility testing, VITEK 2 AST Cards. The method, then:
as §3

A further assay concerns E. coli NDM ? b. Described as above. The method, then:
as §3

The subject of another assay is E. coli SH ? (APHA). Described as above. The method, then:
as §3

For a further assay, the system named is E. coli TEM-206. Described as above. As to the method:
as §3

On to `CC1(C)S[C@@H]2[C@H](NC(=O)[C@H](N)c3ccccc3)C(=O)N2[C@H]1C(=O)O` [ampicillin, Ampicillin], for which the MIC ampicillin in assay [1], in assay [2], in assay [3], in [4], in assay [5] and in [6] was greater than 64 µg/mL throughout. Besides, the MIC ampicillin in [7] is greater than 64 µg/mL; in [8], greater than 64 µg/mL; in assay [9] (isolate 2016 Germany, UTI, Urine), greater than 64 µg/mL; in [9] (isolate 2016 Lithuania, UTI, Urine) it was greater than 64 µg/mL; in assay [9] (isolate 2017 Israel, UTI, Urine) it was greater than 64 µg/mL; in assay [9] (isolate 2017 Portugal, RTI, Bronchi) it was greater than 64 µg/mL. The MIC ampicillin in assay [9] (isolates 2016 South Africa, IAI, Peritoneal Fluid) is greater than 64 µg/mL. Further, the Interpretation entry in the assay on E. coli TEM-1 ?, in the assay with E. coli TEM-104, with E. coli TEM-148, in the assay with E. coli NDM ? a, with E. coli NDM ? b and with E. coli SH ? (APHA) was “R” in each case. Moreover, the Interpretation result with E. coli TEM-206 is reported as “R”. The MIC with E. coli TEM-1 ?, against E. coli TEM-104, in the assay with E. coli TEM-148 and against E. coli TEM-206 was no less than 32 µg/mL in each case.
